From US20230062119A1, “USE OF BIOMARKERS IN IDENTIFYING PATIENTS THAT WILL BE RESPONSIVE TO TREATMENT WITH A PRMT5 INHIBITOR” (Merck Sharp & Dohme LLC, priority 2019, published 2023)
pEC50: −log10 of the molar value. Read-outs that look alike come from different tables or passages of the source.

Target: T1, Full-length (FL)-PRMT5-MEP50 enzyme complex (Homo sapiens, UniProt O14744)
T1 construct: Full-length (FL)-PRMT5-MEP50 enzyme complex (recombinant proteins from baculovirus-transfected Sf21 cells: FL-PRMT5; MW=73837 kDa and FL-MEP50; MW=38614); made in house; host or cells: baculovirus-transfected Sf21 insect cells
Assay: PRMT5-MEP50 Enzyme Methylation Assay
Assay type: biochemical
Settings: 1.0 nM PRMT5-MEP50, 75 nM biotinylated peptide, 15 μM SAM
Procedure: PRMT5-MEP50 biochemical assay is a direct measurement of the methylation activity of the enzyme complex on a short peptide substrate derived from the N-terminus of H4 histone. Methylation experiment is performed with recombinant PRMT5-MEP50 protein complex. The assessment of inhibitory effect of small molecules is measured by the effectiveness of the compounds to inhibit this reaction (EC50).
In this assay, the potency (EC50) of each compound was determined from a twenty-point (1:2 serial dilution; top compound concentration of 100000 nM) titration curve using the following outlined procedure. To each well of a white ProxiPlus 384 well-plate, 100 nL of compound (1% DMSO in final assay volume of 10 μL) was dispensed, followed by the addition of 8 μL of 1× assay buffer (50 mM Bicine pH 8.0, 1 mM DTT, 0.004% Tween20, 0.01% BSA) containing 1.25 nM of Full-length (FL)-PRMT5-MEP50 enzyme complex (recombinant proteins from baculovirus-transfected Sf21 cells: FL-PRMT5; MW=[…] and FL-MEP50; MW=38614) and 1 μL of 150 μM S-(5′-Adenosyl)-L-Methionine Chloride (SAM). Plates were sealed and placed in a 37° C. humidified chamber for a 60 minutes pre-incubation with compound. Subsequently, each reaction was initiated by the addition of 1 μL 1× assay buffer containing 750 nM biotinylated H4R3(Mel) peptide. The final reaction in each well of 10 μL consists of 1.0 nM PRMT5-MEP50, 75 nM biotinylated-peptide, and 15 μM SAM. Methylation reactions proceeded for 150 minutes in a sealed plate at 37° C. Reactions were immediately quenched by the addition of 1 μL of 5% formic acid. Plates were then frozen and shipped to SAMDI™ Tech Inc. to determine the percent conversion from H4R3(Mel) to H4R3(Me2). Dose-response curves were generated by plotting percent effect (% product conversion; Y-axis) vs. Log 10 compound concentrations (X-axis). EC50 values were determined by non-linear regression according to models for either sigmoidal (4 parameters) or biphasic (7 parameters) dose-response curves.

[1] = one EC50: 4 parameters single site sigmoidal model, EC50 1: first value of 7 parameters biphasic model, read-out: Enzyme Methylation Assay (EC50 or EC50 1)
[2] = second EC50 of 7 parameters biphasic model, read-out: Enzyme Methylation Assay (EC50 2)

T1 sequence (O14744 whole entry): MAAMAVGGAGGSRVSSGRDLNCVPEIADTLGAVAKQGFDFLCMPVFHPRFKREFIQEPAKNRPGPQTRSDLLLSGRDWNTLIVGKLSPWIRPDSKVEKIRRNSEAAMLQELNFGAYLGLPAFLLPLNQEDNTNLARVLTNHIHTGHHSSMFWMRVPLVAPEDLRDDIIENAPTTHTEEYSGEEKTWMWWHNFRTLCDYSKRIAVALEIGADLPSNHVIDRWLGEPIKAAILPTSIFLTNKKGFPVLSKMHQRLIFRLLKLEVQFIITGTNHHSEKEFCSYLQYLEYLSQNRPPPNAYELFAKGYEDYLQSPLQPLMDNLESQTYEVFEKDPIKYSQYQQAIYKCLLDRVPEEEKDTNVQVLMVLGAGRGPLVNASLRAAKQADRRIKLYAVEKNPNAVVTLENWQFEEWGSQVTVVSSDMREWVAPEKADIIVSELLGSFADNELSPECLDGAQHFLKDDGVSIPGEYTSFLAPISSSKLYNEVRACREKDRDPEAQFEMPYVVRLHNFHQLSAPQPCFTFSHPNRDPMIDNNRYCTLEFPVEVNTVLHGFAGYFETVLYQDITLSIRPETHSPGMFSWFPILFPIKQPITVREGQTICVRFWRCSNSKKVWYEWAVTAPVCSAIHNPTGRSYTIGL
T1 sequence (Q9BQA1 whole entry partner): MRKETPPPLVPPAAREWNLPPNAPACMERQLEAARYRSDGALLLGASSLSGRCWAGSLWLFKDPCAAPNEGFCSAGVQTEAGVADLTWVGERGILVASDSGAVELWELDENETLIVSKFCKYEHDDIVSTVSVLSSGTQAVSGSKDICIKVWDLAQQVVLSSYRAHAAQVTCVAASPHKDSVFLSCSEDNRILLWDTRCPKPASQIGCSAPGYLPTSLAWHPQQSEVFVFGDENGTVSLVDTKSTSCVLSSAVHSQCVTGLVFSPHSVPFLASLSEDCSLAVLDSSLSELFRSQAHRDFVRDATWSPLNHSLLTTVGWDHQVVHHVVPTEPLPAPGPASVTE

pEC50 [1] | pEC50 [2] | SMILES
8.85 |  | Cc1nc(N)nc2c1ccn2[C@@H]1O[C@@H]2[C@@H](Oc3ccc4cc(Br)c(N)nc4c3)CC[C@]2(O)[C@H]1O [Example 114, (2R,3R,3aS,6S,6aR)-6-((2-amino-3-bromoquinolin-7-yl)oxy)-2-(2-amino-4-methyl-7H-pyrrolo[2,3-d]pyrimidin-7-yl)hexahydro-3aH-cyclopenta[b]furan-3,3a-diol]
9.40 |  | Nc1nc2cc(O[C@H]3CC[C@@]4(O)[C@@H]3O[C@@H](n3cc(F)c5c(N)ncnc53)[C@@H]4O)ccc2cc1F [Example 73, (2R,3R,3aS,6S,6aR)-6-((2-amino-3-fluoroquinolin-7-yl)oxy)-2-(4-amino-5-fluoro-7H-pyrrolo[2,3-d]pyrimidin-7-yl)hexahydro-3aH-cyclopenta[b]furan-3,3a-diol]
9.22 |  | Cc1ncnc2c1c(F)cn2[C@@H]1O[C@@H]2[C@H](Cc3ccc4cc(Br)c(N)nc4c3)CC[C@]2(O)[C@H]1O [Example 84, (2R,3R,3aS,6S,6aR)-6-((2-amino-3-bromoquinolin-7-yl)methyl)-2-(5-fluoro-4-methyl-7H-pyrrolo[2,3-d]pyrimidin-7-yl)hexahydro-3aH-cyclopenta[b]furan-3,3a-diol]
9.00 |  | C[C@]1(CCc2ccc3cc(Br)c(N)nc3c2)C[C@@H](n2ccc3c(N)ncnc32)[C@H](O)[C@]1(C)O [Example 117, (1R,2S,3R,5S)-5-(2-(2-amino-3-bromoquinolin-7-yl)ethyl)-3-(4-amino-7H-pyrrolo[2,3-d]pyrimidin-7-yl)-1,5-dimethylcyclopentane-1,2-diol]
9.10 | 6.71 | C#C[C@@]1(O)[C@@H](COc2ccc3cc(Br)c(N)nc3c2)O[C@@H](n2ccc3c(N)ncnc32)[C@@H]1O [Example 3, (2R,3S,4R,5R)-2-(((2-amino-3-bromoquinolin-7-yl)oxy)methyl)-5-(4-amino-7H-pyrrolo[2,3-d]pyrimidin-7-yl)-3-ethynyltetrahydrofuran-3,4-diol]
9.30 | 7.05 | C[C@]1(COc2ccc3cc(Br)c(N)nc3c2)O[C@@H](n2ccc3c(N)ncnc32)[C@H](O)[C@@H]1O [Example 13, (2R,3S,4R,5R)-2-(((2-amino-3-bromoquinolin-7-yl)oxy)methyl)-5-(4-amino-7H-pyrrolo[2,3-d]pyrimidin-7-yl)-2-methyltetrahydrofuran-3,4-diol]
9.30 |  | Nc1nc2cc(O[C@H]3CC[C@@]4(O)[C@@H]3O[C@@H](n3cc(C5CC5)c5c(N)ncnc53)[C@@H]4O)ccc2cc1Br [Example 52, (2R,3R,3aS,6S,6aR)-6-[(2-amino-3-bromoquinolin-7-yl)oxy]-2-(4-amino-5-cyclopropyl-7H-pyrrolo[2,3-d]pyrimidin-7-yl)hexahydro-3aH-cyclopenta[b]furan-3,3a-diol]
8.41 | 5.48 | Nc1nc2cc(CC3OC[C@@]4(O)C3C[C@@H](n3ccc5c(N)ncnc53)[C@@H]4O)ccc2cc1Br (stereo partly drawn) [Example 132, (3aS,4S,5R)-1-((2-amino-3-bromoquinolin-7-yl)methyl)-5-(4-amino-7H-pyrrolo[2,3-d]pyrimidin-7-yl)tetrahydro-1H-cyclopenta[c]furan-3a,4(3H)-diol]
8.46 |  | Cc1ncnc2c1ccn2[C@@H]1O[C@@H]2[C@@H](Cc3ccc4cc(Br)c(N)nc4c3)OC[C@]2(O)[C@H]1O [Example 134, (2R,3R,3aS,6R,6aR)-6-((2-amino-3-bromoquinolin-7-yl)methyl)-2-(4-methyl-7H-pyrrolo[2,3-d]pyrimidin-7-yl)tetrahydrofuro[3,4-b]furan-3,3a(4H)-diol]
8.96 |  | Cc1ncnc2c1ccn2[C@@H]1O[C@@H]2[C@@H](Oc3ccc4ccc(N)nc4c3)CC[C@]2(O)[C@H]1O [Example 113, (2R,3R,3aS,6S,6aR)-6-((2-aminoquinolin-7-yl)oxy)-2-(4-methyl-7H-pyrrolo[2,3-d]pyrimidin-7-Yl)hexahydro-2H-cyclopenta[b]furan-3,3a-diol]
9.10 |  | Nc1nc2cc(O[C@H]3CC[C@@]4(O)[C@@H]3O[C@@H](n3ccc5c(Cl)ncnc53)[C@@H]4O)ccc2cc1Br [Example 5, (2R,3R,3aS,6S,6aR)-6-((2-amino-3-bromoquinolin-7-yl)oxy)-2-(4-chloro-7H-pyrrolo[2,3-d]pyrimidin-7-yl)hexahydro-2H-cyclopenta[b]furan-3,3a-diol]
9.30 |  | Nc1nc2cc(C[C@@H]3CC[C@@]4(O)[C@@H]3O[C@@H](n3ccc5c(N)nc(Cl)nc53)[C@@H]4O)ccc2cc1F [Example 48, (2R,3R,3aS,6S,6aR)-2-(4-amino-2-chloro-7H-pyrrolo[2,3-d]pyrimidin-7-yl)-6-[(2-amino-3-fluoroquinolin-7-yl)methyl]hexahydro-3aH-cyclopenta[b]furan-3,3a-diol]
9.15 |  | Nc1ncnc2c1ccn2[C@@H]1O[C@@H]2[C@@H](Oc3ccc4cc5c(nc4c3)NCC5)CC[C@]2(O)[C@H]1O [Example 75, (2R,3R,3aS,6S,6aR)-2-(4-amino-7H-pyrrolo[2,3-d]pyrimidin-7-yl)-6-((2,3-dihydro-1H-pyrrolo[2,3-b]quinolin-7-yl)oxy)hexahydro-3aH-cyclopenta[b]furan-3,3a-diol]
7.48 | 4.68 | COc1ncnc2c1ccn2[C@@H]1O[C@](C)(COc2ccc3cc(Br)c(N)nc3c2)[C@@H](O)[C@H]1O [Example 12, (2R,3S,4R,5R)-2-(((2-amino-3-bromoquinolin-7-yl)oxy)methyl)-5-(4-methoxy-7H-pyrrolo[2,3-d]pyrimidin-7-yl)-2-methyltetrahydrofuran-3,4-diol]
8.96 |  | Nc1nc2c(F)c(C[C@@H]3CC[C@@]4(O)[C@@H]3O[C@@H](n3ccc5c(N)ncnc53)[C@@H]4O)ccc2cc1Cl [Example 26, (2R,3R,3aS,6S,6aR)-6-((2-amino-3-chloro-8-fluoroquinolin-7-yl)methyl)-2-(4-amino-7H-pyrrolo[2,3-d]pyrimidin-7-yl)hexahydro-3aH-cyclopenta[b]furan-3,3a-diol]
9.70 |  | Nc1nc2cc(C[C@@H]3CC[C@@]4(O)[C@@H]3O[C@@H](n3ccc5c(N)nc(Cl)nc53)[C@@H]4O)ccc2cc1Cl [Example 47, (2R,3R,3aS,6S,6aR)-2-(4-amino-2-chloro-7H-pyrrolo[2,3-d]pyrimidin-7-yl)-6-[(2-amino-3-chloroquinolin-7-yl)methyl]hexahydro-3aH-cyclopenta[b]furan-3,3a-diol]
9.70 |  | Nc1nc2cc(C[C@@H]3CC[C@@]4(O)[C@@H]3O[C@@H](n3cc(F)c5c(N)ncnc53)[C@@H]4O)ccc2cc1Br [Example 108, (2R,3R,3aS,6S,6aR)-6-((2-amino-3-bromoquinolin-7-yl)methyl)-2-(4-amino-5-fluoro-7H-pyrrolo[2,3-d]pyrimidin-7-yl)hexahydro-2H-cyclopenta[b]furan-3,3a-diol]
9.30 | 6.96 | CNc1ncnc2c1ccn2[C@@H]1C[C@H](COc2ccc3cc(Br)c(N)nc3c2)[C@@](C)(O)[C@H]1O [Example 93, (1R,2S,3R,5R)-5-(((2-amino-3-bromoquinolin-7-yl)oxy)methyl)-1-methyl-3-(4-(methylamino)-7H-pyrrolo[2,3-d]pyrimidin-7-yl)cyclopentane-1,2-diol]
8.70 | 6.61 | Nc1nc2cc(O[C@H]3CC[C@@]4(O)[C@@H]3O[C@@H](n3ccc5c(CO)ncnc53)[C@@H]4O)ccc2cc1Br [Example 77, (2R,3R,3aS,6S,6aR)-6-[(2-amino-3-bromoquinolin-7-yl)oxy]-2-[4-(hydroxymethyl)-7H-pyrrolo[2,3-d]pyrimidin-7-yl]hexahydro-3aH-cyclopenta[b]furan-3,3a-diol]
9.52 |  | Cc1cn([C@@H]2O[C@@H]3[C@H](Cc4ccc5cc(Cl)c(N)nc5c4)CC[C@]3(O)[C@H]2O)c2ncnc(N)c12 [Example 66, (2R,3R,3aS,6S,6aR)-6-((2-amino-3-chloroquinolin-7-yl)methyl)-2-(4-amino-5-methyl-7H-pyrrolo[2,3-d]pyrimidin-7-yl)hexahydro-3aH-cyclopenta[b]furan-3,3a-diol]

SMILES | pEC50 [1] | pEC50 [2]
C[C@]1(CCc2ccc3cc(Br)c(N)nc3c2)C[C@@H](n2ccc3c(N)ncnc32)[C@H](O)[C@@H]1O [Example 15, (1S,2R,3S,5R)-3-[2-(2-amino-3-bromo-7-quinolinyl)ethyl]-5-(4-amino-7H-pyrrolo[2,3-d]pyrimidin-7-yl)-3-methyl-1,2-cyclopentanediol] | 9.10 | 
